This is an account of results in ChEMBL document CHEMBL3045538, “Amino acid chemistry in crop protection” (2010).

Format in all cases: functional
The subject of one assay is Echinochloa crus-galli. As to the kind of experiment: Post-emergence herbicidal activity against Echinochloa crus-galli (barnyard grass).
The next assay deals with Abutilon theophrasti. As to the kind of experiment: Post-emergence herbicidal activity against Abutilon theophrasti (velvetleaf).
For the next assay, the system named is Ipomoea purpurea. The assay is described as follows: Post-emergence herbicidal activity against Ipomoea purpurea (common morning-glory).
A further assay has as its system Digitaria sanguinalis. The assay is described as follows: Post-emergence herbicidal activity against Digitaria sanguinalis (hairy crabgrass).
In a further assay the test system is Setaria viridis. As to the kind of experiment: Post-emergence herbicidal activity against Setaria viridis (green foxtail).
A further assay deals with Plasmopara viticola. As to the kind of experiment: Fungicidal activity against Plasmopara viticola.
A further assay concerns Phytophthora infestans. The assay is described as follows: Fungicidal activity against Phytophthora infestans.

In brackets after ≈: the same amount, converted by molar mass. Bounds are passed on as bounds.

The EC80 is the concentration needed for an effect of 80%.

For `COC(=O)CCn1nnc2ccc(Oc3c(F)cc(C(F)(F)F)cc3Cl)cc21`, the ED85 was 125 g/ha in the assay with Echinochloa crus-galli; less than 32 g/ha with Abutilon theophrasti; less than 32 g/ha in the assay with Ipomoea purpurea; less than 32 g/ha with Digitaria sanguinalis; 250 g/ha in the assay with Setaria viridis.
For the compound `CCC#CCOc1ccc(CCNC(=O)[C@H](CCC)NS(C)(=O)=O)cc1OC`, the 80% effect concentration (EC80) with Plasmopara viticola came to 20 µg/mL (≈ 48.7 µM); with Phytophthora infestans, 60 µg/mL (≈ 146 µM).
On to `CC(C(N)=O)n1nnc2ccc(Oc3c(F)cc(C(F)(F)F)cc3Cl)cc21` (centres undefined), for which the ED85 is recorded as 125 g/ha in the assay with Echinochloa crus-galli; less than 32 g/ha with Abutilon theophrasti; less than 32 g/ha with Ipomoea purpurea; 63 g/ha in the assay with Digitaria sanguinalis; 63 g/ha in the assay with Setaria viridis.
In the case of `CCC#CCOc1ccc(CCNC(=O)C(NS(C)(=O)=O)c2ccc(Cl)cc2)cc1OC` (racemic), the EC80 in the assay on Plasmopara viticola was found to be 15 µg/mL (≈ 31.3 µM); with Phytophthora infestans, 20 µg/mL (≈ 41.8 µM).
Regarding `CCC#CCOc1ccc(CCNC(=O)CNS(C)(=O)=O)cc1OC`, the concentration for an effect of 80% (EC80) was greater than 200 µg/mL in the assay with Plasmopara viticola and 148 µg/mL (≈ 402 µM) in the assay on Phytophthora infestans.
For `CCC#CCOc1ccc(CCNC(=O)[C@H](CC(C)C)NS(C)(=O)=O)cc1OC`, in that order: 18 µg/mL (≈ 42.4 µM) and 12 µg/mL (≈ 28.3 µM).
Consider `Fc1cc(C(F)(F)F)cc(Cl)c1Oc1ccc2nn[nH]c2c1`, for which the ED85 in the assay on Echinochloa crus-galli is given as greater than 500 g/ha; in the assay with Abutilon theophrasti, 250 g/ha; with Ipomoea purpurea, less than 32 g/ha; in the assay on Digitaria sanguinalis, 250 g/ha; in the assay on Setaria viridis, greater than 500 g/ha.
On to `CCC#CCOc1ccc(CCNC(=O)C(NS(C)(=O)=O)C(CC)CC)cc1OC` (racemic), for which the 80% effect concentration (EC80) in the assay on Plasmopara viticola and with Phytophthora infestans was 16 µg/mL (≈ 36.5 µM) throughout.
Regarding `CCC#CCOc1ccc(CCNC(=O)[C@@H](NS(C)(=O)=O)[C@@H](C)CC)cc1OC`, the 80% effect concentration (EC80) with Plasmopara viticola came to 2 µg/mL (≈ 4.71 µM); in the assay with Phytophthora infestans, 3 µg/mL (≈ 7.07 µM).
For the compound `CCC#CCOc1ccc(CCNC(=O)[C@H](C)NS(C)(=O)=O)cc1OC`, the EC80 with Plasmopara viticola and in the assay on Phytophthora infestans was greater than 200 µg/mL in each case.
With `CCC#CCOc1ccc(CCNC(=O)[C@@H](NS(C)(=O)=O)C(C)C)cc1OC`, the concentration for an effect of 80% (EC80) with Plasmopara viticola worked out at 2 µg/mL (≈ 4.87 µM); in the assay with Phytophthora infestans, 8 µg/mL (≈ 19.5 µM).
On to `CCC#CCOc1ccc(CCNC(=O)[C@H](CCSC)NS(C)(=O)=O)cc1OC`, for which the concentration for an effect of 80% (EC80) in the assay with Plasmopara viticola and with Phytophthora infestans was greater than 200 µg/mL throughout.
Take `C=CCC(NS(C)(=O)=O)C(=O)NCCc1ccc(OCC#CCC)c(OC)c1` (racemic): the EC80 was 49 µg/mL (≈ 120 µM) in the assay with Plasmopara viticola and 9 µg/mL (≈ 22 µM) in the assay with Phytophthora infestans.
For the compound `COC(=O)[C@H](C)n1nnc2ccc(Oc3c(F)cc(C(F)(F)F)cc3Cl)cc21`, the ED85 in the assay on Echinochloa crus-galli was 63 g/ha; in the assay with Abutilon theophrasti, less than 32 g/ha; in the assay with Ipomoea purpurea it was less than 32 g/ha; with Digitaria sanguinalis, 125 g/ha; with Setaria viridis it was 125 g/ha.
Take `CCC#CCOc1ccc(CCNC(=O)[C@@H](NS(C)(=O)=O)[C@@H](C)O)cc1OC`: the 80% effect concentration (EC80) was determined as 109 µg/mL (≈ 264 µM) in the assay with Plasmopara viticola and 148 µg/mL (≈ 359 µM) with Phytophthora infestans.
`COC(=O)Cn1nnc2ccc(Oc3c(F)cc(C(F)(F)F)cc3Cl)cc21`: the ED85 in the assay on Echinochloa crus-galli was 4 g/ha; in the assay on Abutilon theophrasti, greater than 8 g/ha; in the assay on Ipomoea purpurea, 0.5 g/ha; in the assay with Digitaria sanguinalis it was greater than 8 g/ha; in the assay with Setaria viridis, 2 g/ha.
As to `C#CCn1nnc2ccc(Oc3c(F)cc(C(F)(F)F)cc3Cl)cc21`, the ED85 is recorded as 250 g/ha with Echinochloa crus-galli; 250 g/ha in the assay on Abutilon theophrasti; less than 32 g/ha with Ipomoea purpurea; 500 g/ha with Digitaria sanguinalis; 63 g/ha with Setaria viridis.
Take `CCC#CCOc1ccc(CCNC(=O)[C@H](CCC(=O)O)NS(C)(=O)=O)cc1OC`: the 80% effect concentration (EC80) in the assay on Plasmopara viticola and with Phytophthora infestans was greater than 200 µg/mL in each case.
On to `CCn1nnc2ccc(Oc3c(F)cc(C(F)(F)F)cc3Cl)cc21`, for which the ED85 in the assay on Echinochloa crus-galli is greater than 500 g/ha; in the assay with Abutilon theophrasti, less than 32 g/ha; in the assay with Ipomoea purpurea it was less than 32 g/ha; with Digitaria sanguinalis it was greater than 500 g/ha; in the assay on Setaria viridis, greater than 500 g/ha.
As for `CC(C(=O)O)n1nnc2ccc(Oc3c(F)cc(C(F)(F)F)cc3Cl)cc21` (centres undefined), the ED85 with Echinochloa crus-galli was 4 g/ha; in the assay with Abutilon theophrasti, 1 g/ha; with Ipomoea purpurea it was less than 0.5 g/ha; in the assay on Digitaria sanguinalis, 8 g/ha; in the assay with Setaria viridis it was 1 g/ha.
